Reference: publication PMC10295897, “A Novel MDM2-Binding Chalcone Induces Apoptosis of Oral Squamous Cell Carcinoma” (Biomedicines, 2023)

Columns and labels:
SCC25 cells = assay: MTT cell viability assay, SCC25 cells; type: cell-based, human
Procedure: Human SCC-4, SCC-9, and SCC-25 cells derived from a human oral tongue SCC (squamous cell carcinoma) were obtained from the ATCC (CRL-1624, CRL-1629, and CRL-1628, respectively) and maintained in 1:1 DMEM/F12 (Dulbecco’s modified Eagle medium and Ham’s F12 medium; Gibco (Thermo Fisher, Waltham, MA, USA)) supplemented with 10% (v/v) FBS (fetal bovine serum; Invitrogen, Thermo Fisher, Waltham, MA, USA) and 400 ng/mL hydrocortisone (Sigma-Aldrich Co., St. Louis, MO, USA). Primary normal human gingival fibroblasts were obtained from the ATCC (PCS-201-018; HGF) and maintained in DMEM supplemented with 10% (v/v) FBS and were used in a maximum of six passages. The cells were grown in a humidified environment containing 5% CO2 at 37 °C. For all biological experiments, the compounds and control nutlin 3a were solubilized in 100% DMSO (all Sigma-Aldrich) to a final concentration of 10 mM. Carboplatin stock was prepared in water (Fauldcarbo®; LibbsFarmacêutica, São Paulo, SP, Brazil) and was used as a standard anticancer compound.
(§1) The viability of SCC cell lines, HT-29, HCT-116, HEP2G and primary human fibroblast cells was evaluated using the MTT assay as in [26]. Briefly, the cells were grown in duplicates in 96-well plates (5 × 10^3 cells/well) until confluence. Then, the medium was removed, fresh medium was added, and the cells were returned to the incubator in the presence of different compounds. DMSO at the same concentrations was used as a 100% cell viability control. After 48 h, the cells were incubated with 5 mg/mL MTT reagent (3-(4,5-dimethyl-2-thiazolyl)-2,5-diphenyl-2-H-tetrazolium bromide) (Sigma-Aldrich Co., St. Louis, MO, USA) for 3.5 h. After that, formazan crystals were dissolved in MTT solvent solution (DMSO/methanol 1:1 v/v), and the absorbance at 560 nm was evaluated using an EPOCH microplate spectrophotometer (BioTek Instruments, Winooski, VT, USA) with the background absorbance at 670 nm subtracted. Each of the six compounds was tested at six or seven different concentrations, ranging from 0.3 µM to 200 µM in cancer cell lines (SCC-4, SCC-9 and SCC-25) and 0.3 µM to 200 µM in primary normal human gingival fibroblasts. Controls (carboplatin, nutlin 3a) were tested at six or seven different concentrations ranging from 0.05 µM to 1000 µM in cancer cells and normal cells, depending on the compound.
(§2) The data are presented as means ± SD. IC values for the MTT assays were obtained by nonlinear regression using the […] 5.0 program (Intuitive Software for Science, San Diego, CA, USA) from at least three independent experiments. A dose–response (inhibitor) vs. response curve using the least squares method was used to determine the IC50, SD, and R^2 of the data. The selectivity index was calculated as SI = IC50 of the compound in normal oral fibroblast cells/IC50 of the same compound for each cancer cell line (SCC-4, SCC-9, SCC-25, HCT-116, HT29 and HEP2G), and the mean was calculated when indicated.

[1] = system: Oral Tumor Cells (SCC9, SCC25, SCC4); assay: MTT assay, average over oral tumor cells; type: cell-based, human
Procedure: as §1, §2

Hemolysis assay = type: cell-based; conditions: human erythrocytes; vs Triton X-100 = 100%; 300 µM (method) / 500 µM (Figure 2)
Procedure: To determine the surfactant power of substances in biological membranes, a hemolysis assay was performed using human blood approved by the Research Ethics Committee of Universidade Federal Fluminense (CAAE: 43134721.4.0000.5626). Erythrocytes were collected by centrifugation at 1500 rpm for 15 min, washed with PBS (phosphate-buffered saline) supplemented with 10 mM glucose, and counted in an automatic cell counter (Thermo Fisher, Waltham, MA, USA). Erythrocytes were then plated in 96-well plates at a concentration of 4 × 10^8 cells/well in triplicates, and 10 µL of compounds was added at a final concentration of 300 µM in PBS with glucose (final volume 100 µL). In total, 10 µL of PBS was used as a negative control and 10 µL of PBS with 0.1% Triton X-100 as a positive control. Data reading was performed with EPOCH (BioTek Instruments, Winooski, VT, USA) at an absorbance of 540 nm, and the statistical data were generated using the […] Prism 5.0 program (Intuitive Software for Science, San Diego, CA, USA).

C57BL/6 female mice = assay: In vivo acute toxicity study; conditions: for Gross Necropsy: day 14
Procedure: The acute toxicity study for compound 1f was performed as in the work of Macedo et al., 2019 [24]. The assay was approved by the University Animal Ethics Board under registration number 2699110419, in accordance with Brazilian guidelines and regulations. Dosing and analysis were performed according to OECD guidelines 423 and revised by Parasuraman. The test was performed in 12-week-old C57BL/6 female mice via intraperitoneal injection. Each animal group had n = 3 and received only one intraperitoneal injection (Day 0) of compound 1f dissolved in […] PBS and 3% DMSO. The control group animals received only 3% DMSO in PBS. The first dose of the compound was 25 mg/kg; subsequent dose levels (50 mg/kg and 100 mg/kg) were determined based on the result obtained from the previous dosing. The animals were examined every day, twice a day, for mortality and morbidity for 14 days. At day 14, all animals were anesthetized (ketamine 100 mg/kg and xylazine 10 mg/kg) followed by cervical dislocation. The gross necropsy and histology of the main organs were performed. Body weight and average food consumption were measured every 7 days as an indication of morbidity, and the following signs were assessed: tremors; convulsion; salivation; diarrhea; lethargy; pain signs; increased rear arching; and defect in mobility. The necropsy included an examination of the external characteristics of the carcass; external body orifices; the abdominal, thoracic, and cranial cavities; and organs/tissues—liver, thymus, right kidney, right testicle, heart, and lung.

Structure (SMILES): Cc1cccc(C)c1-n1cc(/C=C/C(=O)c2ccccc2N)nn1 [1f, (E)-1-(2-Aminophenyl)-3-(1-(2,6-dimethylphenyl)-1H-1,2,3-triazol-4-yl)prop-2-en-1-one]
- IC50 (SCC25 cells; Homo sapiens, SCC-25, 48 h, MTT): 5.03 µM
- SCC25 S.I. (SCC25 cells; selective index = IC50 HGF / IC50 SCC25): 5.88
- IC50 ([1]; Homo sapiens, mean of SCC9, SCC25, SCC4): 4.54 µM
- Average S.I. ([1]; IC50 of normal primary fibroblasts / average IC50 of tumor cells): 6.51
- hemolysis at 300 µM (Hemolysis assay): < 2%
- Change in body weight (C57BL/6 female mice; 25 mg/kg single i.p., 14 days): Absent
- Morbidity (C57BL/6 female mice; 25 mg/kg single i.p., 14 days): Absent
- Gross Necropsy (C57BL/6 female mice; 25 mg/kg single i.p.): No alteration
- Change in body weight (C57BL/6 female mice; 50 mg/kg single i.p., 14 days): Absent
- Morbidity (C57BL/6 female mice; 50 mg/kg single i.p., 14 days): Absent
- Gross Necropsy (C57BL/6 female mice; 50 mg/kg single i.p.): No alteration
- Change in body weight (C57BL/6 female mice; 100 mg/kg single i.p., 14 days): Absent
- Morbidity (C57BL/6 female mice; 100 mg/kg single i.p., 14 days): Absent
- Gross Necropsy (C57BL/6 female mice; 100 mg/kg single i.p.): No alteration
- animal weight compared to control group (C57BL/6 female mice; 25, 50, 100 mg/kg i.p., 14 days): no significant change in animal weight
- food consumption, second week (C57BL/6 female mice; all groups (25, 50, 100 mg/kg i.p.)): no noticeable difference in food consumption
- food intake, first week (C57BL/6 female mice; all treated groups (25, 50, 100 mg/kg i.p.), more significant at 100 mg/kg): reduction in food intake
